From patent publication US8791102B2, “Acetanilide sphingosine-1-phosphate receptor antagonists” (Exelixis, Inc., priority 2008, dated 2014) come the findings set out here.

T1 sequence (P21453 whole entry): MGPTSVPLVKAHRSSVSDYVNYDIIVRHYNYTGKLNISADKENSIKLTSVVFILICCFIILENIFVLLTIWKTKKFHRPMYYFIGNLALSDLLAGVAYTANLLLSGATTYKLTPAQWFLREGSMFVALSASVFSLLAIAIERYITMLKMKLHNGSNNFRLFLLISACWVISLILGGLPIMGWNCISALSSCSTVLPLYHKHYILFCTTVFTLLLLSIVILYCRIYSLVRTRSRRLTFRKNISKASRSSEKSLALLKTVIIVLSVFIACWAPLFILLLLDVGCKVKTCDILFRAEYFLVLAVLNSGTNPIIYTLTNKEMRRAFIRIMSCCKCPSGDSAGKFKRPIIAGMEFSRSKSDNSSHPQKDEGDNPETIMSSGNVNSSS

The experiment has as its target T1, human S1P1 receptors (Homo sapiens, UniProt P21453).
T1 construct: host or cells: HEK293
The experiment can be described thus: S1P1R antagonist assay (fluorescent membrane potential dye, cAMP readout). The experiment is classed as cell-based. To be noted: HEK293 cells expressing human S1P1 receptors and CNG channel; 500 nM NECA; S1P1R agonist 10 nM; 90 minutes; read-out: EC50 or IC50 value.
As for `CC/C=C/CC(=O)N[C@@H](COCc1ccccc1)C(=O)Nc1ccc(Oc2ccc(F)cc2)cc1` [Compound 232, (S,E)-N-(3-(benzyloxy)-1-(4-(4-fluorophenoxy)phenylamino)-1-oxopropan-2-yl)hex-3-enamide], the concentration for half-maximal inhibition (IC50) is > 1000 nM.

For `O=C(Nc1ccc(Oc2ccc(F)cc2)cc1)[C@@H]1C[C@@H](Cc2c(F)cc(F)cc2F)CN1C(=O)Cn1cncn1` [Compound 108, (2S,4R)-1-(2-(1H-1,2,4-triazol-1-yl)acetyl)-N-(4-(4-fluorophenoxy)phenyl)-4-(2,4,6-trifluorobenzyl)pyrrolidine-2-carboxamide], the IC50 is ≤ 300 nM.

`CC(=O)OCC(=O)NC(COCc1ccccc1)C(=O)Nc1ccc(Oc2ccccc2)cc1` (centres unmarked) [Compound 388, 2-oxo-2-[(2-oxo-1-{[(phenylmethyl)oxy]methyl}-2-{[4-(phenyloxy)phenyl]amino}ethyl)amino]ethyl acetate]: the half-inhibitory concentration (IC50) is > 1000 nM.

For `O=C(Cc1cccc(Br)c1)NC(COCc1ccccc1)C(=O)Nc1ccc(Oc2ccccc2)cc1` (centres unmarked) [Compound 384, N-(2-oxo-1-{[(phenylmethyl)oxy]methyl}-2-{[4-(phenyloxy)phenyl]amino}ethyl)-2-(3-bromophenyl)acetamide], the IC50 was > 1000 nM.

Turning to `COc1ccc(C(=O)NC(COCc2ccccc2)C(=O)Nc2ccc(Oc3ccccc3)cc2)c(C)c1` (centres unmarked) [Compound 309, 2-methyl-4-(methyloxy)-N-(2-oxo-1-{[(phenylmethyl)oxy]methyl}-2-{[4-(phenyloxy)phenyl]amino}ethyl)benzamide], the IC50 was > 1000 nM.

For `CC/C=C/CC(=O)NC(COCc1ccccc1)C(=O)Nc1ccc(Oc2ccccc2)cc1` (centres unmarked) [Compound 327], the IC50 lay in the range of 300 to 1000 nM.

For the compound `O=C(Nc1ccc(Oc2ccc(F)cc2)cc1)[C@@H]1C[C@@H](Cc2ccc(F)cc2)C(=O)N1C(=O)Cn1cncn1` [Compound 71, (2S,4R)-1-(2-(1H-1,2,4-triazol-1-yl)acetyl)-4-(4-fluorobenzyl)-N-(4-(4-fluorophenoxy)phenyl)-5-oxopyrrolidine-2-carboxamide], the 50% inhibitory concentration (IC50) is ≤ 300 nM.

Consider `CS(=O)(=O)CC(=O)N1C[C@H](Cc2ccccc2)C[C@H]1C(=O)Nc1ccc(Oc2ccc(F)cc2)cc1` [Compound 87, (2S,4R)-4-benzyl-N-(4-(4-fluorophenoxy)phenyl)-1-(2-(methylsulfonyl)acetyl)pyrrolidine-2-carboxamide], for which the IC50 was ≤ 300 nM.

For `O=C(Cc1c[nH]cn1)N[C@@H](COCc1ccc(F)cc1)C(=O)Nc1ccc(Oc2ccc(F)cc2)cc1` [Compound 133, (S)-2-(2-(1H-imidazol-5-yl)acetamido)-3-(4-fluorobenzyloxy)-N-(4-(4-fluorophenoxy)phenyl)propanamide], the IC50 is ≤ 300 nM.

Regarding `O=C(Cc1c[nH]c2ccc(F)cc12)N[C@@H](COCc1ccccc1)C(=O)Nc1ccc(Oc2ccc(F)cc2)cc1` [Compound 212, (S)-3-(benzyloxy)-2-(2-(5-fluoro-1H-indol-3-yl)acetamido)-N-(4-(4-fluorophenoxy)phenyl)propanamide], the half-inhibitory concentration (IC50) is ≤ 300 nM.

In the case of `O=C(Cc1cccc(Cl)c1)NC(COCc1ccccc1)C(=O)Nc1ccc(Oc2ccccc2)cc1` (centres unmarked) [Compound 377, N-(2-oxo-1-{[(phenylmethyl)oxy]methyl}-2-{[4-(phenyloxy)phenyl]amino}ethyl)-2-(3-chlorophenyl)acetamide], the IC50 fell in the range of 300 to 1000 nM.

In the case of `O=C(Nc1ccc(Oc2ccc(F)cc2)cc1)[C@@H]1C[C@@H](Cc2ccsc2)CN1C(=O)Cn1cncn1` [Compound 72, (2S,4R)-1-(2-(1H-1,2,4-triazol-1-yl)acetyl)-N-(4-(4-fluorophenoxy)phenyl)-4-(thiophen-3-ylmethyl)pyrrolidine-2-carboxamide], the concentration for half-maximal inhibition (IC50) was ≤ 300 nM.

For the compound `COc1cccc(CC(=O)NC(COCc2ccccc2)C(=O)Nc2ccc(Oc3ccccc3)cc2)c1` (centres unmarked) [Compound 285, N-(2-oxo-1-{[(phenylmethyl)oxy]methyl}-2-{[4-(phenyloxy)phenyl]amino}ethyl)-3-methoxyphenylacetamide], the concentration for half-maximal inhibition (IC50) was > 1000 nM.

`O=C(COc1ccccc1O)NC(COCc1ccccc1)C(=O)Nc1ccc(Oc2ccccc2)cc1` (centres unmarked) [Compound 26, 3-(benzyloxy)-2-(2-(2-hydroxyphenoxy)acetamido)-N-(4-phenoxyphenyl)propanamide]: the half-inhibitory concentration (IC50) was > 1000 nM.

Take `CCCC(C)C(=O)NC(COCc1ccccc1)C(=O)Nc1ccc(Oc2ccccc2)cc1` (centres unmarked) [Compound 286, 2-methyl-N-(2-oxo-1-{[(phenylmethyl)oxy]methyl}-2-{[4-(phenyloxy)phenyl]amino}ethyl)pentanamide]: the 50% inhibitory concentration (IC50) is > 1000 nM.

On to `O=C(Nc1ccc(Oc2ccc(F)cc2)cc1)[C@@H]1C[C@@H](Cc2ccccc2)CN1C(=O)CN1CCSCC1` [Compound 83, (2S,4R)-4-benzyl-N-(4-(4-fluorophenoxy)phenyl)-1-(2-thiomorpholinoacetyl)pyrrolidine-2-carboxamide], for which the IC50 was ≤ 300 nM.

Regarding `O=C(Nc1ccc(Oc2ccc(F)cc2)cc1)[C@@H]1C[C@@H](Cc2cccc(F)c2)CN1C(=O)Cn1nccn1` [Compound 49, (2S,4R)-1-(2-(2H-1,2,3-triazol-2-yl)acetyl)-4-(3-fluorobenzyl)-N-(4-(4-fluorophenoxy)phenyl)pyrrolidine-2-carboxamide], the half-inhibitory concentration (IC50) was ≤ 300 nM.

With `Cc1ccc(CC(=O)NC(COCc2ccccc2)C(=O)Nc2ccc(Oc3ccccc3)cc2)cc1` (centres unmarked) [Compound 372, N-(2-oxo-1-{[(phenylmethyl)oxy]methyl}-2-{[4-(phenyloxy)phenyl]amino}ethyl)-2-p-tolylacetamide], the IC50 was > 1000 nM.

Turning to `O=C(Nc1ccc(Oc2ccc(F)cc2)cc1)[C@@H]1C[C@@H](Cc2ccc(F)cc2)CN1C(=O)Cn1ccnn1` [Compound 75, (2S,4R)-1-(2-(1H-1,2,3-triazol-1-yl)acetyl)-4-(4-fluorobenzyl)-N-(4-(4-fluorophenoxy)phenyl)pyrrolidine-2-carboxamide], the IC50 is ≤ 300 nM.

As for `O=C(Cn1cncn1)N[C@@H](COCc1ccccc1Cl)C(=O)Nc1ccc(Oc2ccc(F)cc2)cc1` [Compound 181, (S)-2-(2-(1H-1,2,4-triazol-1-yl)acetamido)-3-(2-chlorobenzyloxy)-N-(4-(4-fluorophenoxy)phenyl)propanamide], the IC50 is ≤ 300 nM.

Take `CN(C(=O)Cc1c[nH]cn1)[C@@H](COCc1ccccc1)C(=O)Nc1ccc(Oc2ccccc2)cc1` [Compound 203, (S)-2-(2-(1H-imidazol-4-yl)-N-methylacetamido)-3-(benzyloxy)-N-(4-phenoxyphenyl)propanamide]: the IC50 was ≤ 300 nM.

For `Cc1nc(C)n(CC(=O)N[C@@H](COCc2ccccc2)C(=O)Nc2ccc(Oc3ccc(F)cc3)cc2)n1` [Compound 256, (S)-3-(benzyloxy)-2-(2-(3,5-dimethyl-1H-1,2,4-triazol-1-yl)acetamido)-N-(4-(4-fluorophenoxy)phenyl)propanamide], the 50% inhibitory concentration (IC50) was ≤ 300 nM.

Take `O=C(Nc1ccc(Oc2ccc(F)cc2)cc1)[C@@H]1C[C@@H](Cc2ccccc2)CN1C(=O)Cn1nccn1` [Compound 58, (2S,4R)-1-(2-(2H-1,2,3-triazol-2-yl)acetyl)-4-benzyl-N-(4-(4-fluorophenoxy)phenyl)pyrrolidine-2-carboxamide]: the 50% inhibitory concentration (IC50) was ≤ 300 nM.

Consider `CCOCCC(=O)NC(COCc1ccccc1)C(=O)Nc1ccc(Oc2ccccc2)cc1` (centres unmarked) [Compound 376, N-(2-oxo-1-{[(phenylmethyl)oxy]methyl}-2-{[4-(phenyloxy)phenyl]amino}ethyl)-3-ethoxypropanamide], for which the 50% inhibitory concentration (IC50) is > 1000 nM.

`CCOCCN1CCN(CC(=O)N[C@@H](COCc2ccccc2)C(=O)Nc2ccc(Oc3ccc(F)cc3)cc2)CC1` [Compound 242, (S)-3-(benzyloxy)-N-(4-(4-fluorophenoxy)phenyl)-2-(2-(4-(2-ethoxyethyl)piperazin-1-yl)acetamido)propanamide]: the IC50 was in the range of 300 to 1000 nM.

With `Cc1noc(C)c1NC(=O)N[C@@H](COCc1ccccc1)C(=O)Nc1ccc(Oc2ccc(F)cc2)cc1` [Compound 172, (S)-2-(3-(3,5-dimethylisoxazol-4-yl)ureido)-3-benzyloxy-N-(4-(4-fluorophenoxy)phenyl)propanamide], the IC50 is ≤ 300 nM.

For `O=C(COc1ccccc1)NC(COCc1ccccc1)C(=O)Nc1ccc(Oc2ccccc2)cc1` (centres unmarked) [Compound 289, N-(2-oxo-1-{[(phenylmethyl)oxy]methyl}-2-{[4-(phenyloxy)phenyl]amino}ethyl)phenoxyacetamide], the IC50 is > 1000 nM.

For the compound `O=C(Nc1ccc(Oc2ccc(F)cc2)cc1)[C@@H]1C[C@@H](Cc2ccc(F)cc2)CN1C(=O)Cn1nccn1` [Compound 50, (2S,4R)-1-(2-(2H-1,2,3-triazol-2-yl)acetyl)-4-(4-fluorobenzyl)-N-(4-(4-fluorophenoxy)phenyl)pyrrolidine-2-carboxamide], the 50% inhibitory concentration (IC50) was ≤ 300 nM.

In the case of `O=C(NC(COCc1ccccc1)C(=O)Nc1ccc(Oc2ccccc2)cc1)c1ccc2ccccc2c1` (centres unmarked) [Compound 288, N-(2-oxo-1-{[(phenylmethyl)oxy]methyl}-2-{[4-(phenyloxy)phenyl]amino}ethyl)naphthalene-2-carboxamide], the concentration for half-maximal inhibition (IC50) is > 1000 nM.

Regarding `O=C(NC(COCc1ccccc1)C(=O)Nc1ccc(Oc2ccccc2)cc1)C1CCC1` (centres unmarked) [Compound 402, N-(2-oxo-1-{[(phenylmethyl)oxy]methyl}-2-{[4-(phenyloxy)phenyl]amino}ethyl)cyclobutanecarboxamide], the IC50 is > 1000 nM.

As to `O=C(NC(COCc1ccccc1)C(=O)Nc1ccc(Oc2ccccc2)cc1)c1ccnc2ccccc12` (centres unmarked) [Compound 365, N-(2-oxo-1-{[(phenylmethyl)oxy]methyl}-2-{[4-(phenyloxy)phenyl]amino}ethyl)quinoline-4-carboxamide], the half-maximal inhibitory concentration (IC50) is > 1000 nM.

Regarding `Cc1cc(Oc2ccc(NC(=O)[C@@H]3C[C@@H](Cc4ccc(F)cc4)CN3C(=O)Cn3cncn3)cc2)ccc1F` [Compound 73, (2S,4R)-1-(2-(1H-1,2,4-triazol-1-yl)acetyl)-N-(4-(4-fluoro-3-methylphenoxy)phenyl)-4-(4-fluorobenzyl)pyrrolidine-2-carboxamide], the concentration for half-maximal inhibition (IC50) was ≤ 300 nM.

In general, IC50 refers to the midpoint of a concentration-inhibition curve.
